Experimental data: ChEMBL document CHEMBL1201862, “PubChem BioAssay data set” (2004)
Calls of active or inactive are those of the source.

Legend:
[1] = target: T1, Peroxisome proliferator-activated receptor gamma/Nuclear receptor corepressor 2 (Homo sapiens, UniProt P37231+Q9Y618); experiment: Counterscreen for NR2E3 inverse agonists: TR-FRET-based biochemical high throughput dose response assay to identify inverse agonists of the interaction between peroxisome proliferator-activated receptor gamma (PPARg) and nuclear receptor co-repressor 2 (NCOR2).; format: functional
[2] = target: T2, Photoreceptor-specific nuclear receptor (Homo sapiens, UniProt Q9Y5X4); experiment: ligands suppressing NR2E3 nuclear receptor activity – biochemical, TR-FRET, dose response (AID 463256); format: functional
[3] = target: T2, Photoreceptor-specific nuclear receptor; format: functional
[4] = target: T3, RNA-binding protein pos-1 (Caenorhabditis elegans, UniProt G5EF15); experiment: disruptors of C. elegans POS-1 RNA interaction – biochemical, fluorescence polarization, dose response (AID 1964);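 note: purified POS-1 fused to maltose binding protein made in E. coli; potency of compounds blocking POS-1 binding to fluorescent RNA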
T3 sequence (G5EF15 whole entry): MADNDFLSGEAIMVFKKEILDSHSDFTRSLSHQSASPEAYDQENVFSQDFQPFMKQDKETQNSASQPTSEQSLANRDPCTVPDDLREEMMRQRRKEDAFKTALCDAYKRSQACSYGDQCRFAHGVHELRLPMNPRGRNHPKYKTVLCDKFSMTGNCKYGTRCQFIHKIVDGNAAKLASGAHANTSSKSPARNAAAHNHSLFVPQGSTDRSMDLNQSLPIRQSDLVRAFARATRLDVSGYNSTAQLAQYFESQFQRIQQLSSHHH

[5] = target: T4, Zinc finger protein mex-5 (Caenorhabditis elegans, UniProt Q9XUB2); experiment: potency of MEX-5 RNA-binding blockers – biochemical, C. elegans, fluorescence polarization, dose response (AID 1960)
T4 sequence (Q9XUB2 whole entry): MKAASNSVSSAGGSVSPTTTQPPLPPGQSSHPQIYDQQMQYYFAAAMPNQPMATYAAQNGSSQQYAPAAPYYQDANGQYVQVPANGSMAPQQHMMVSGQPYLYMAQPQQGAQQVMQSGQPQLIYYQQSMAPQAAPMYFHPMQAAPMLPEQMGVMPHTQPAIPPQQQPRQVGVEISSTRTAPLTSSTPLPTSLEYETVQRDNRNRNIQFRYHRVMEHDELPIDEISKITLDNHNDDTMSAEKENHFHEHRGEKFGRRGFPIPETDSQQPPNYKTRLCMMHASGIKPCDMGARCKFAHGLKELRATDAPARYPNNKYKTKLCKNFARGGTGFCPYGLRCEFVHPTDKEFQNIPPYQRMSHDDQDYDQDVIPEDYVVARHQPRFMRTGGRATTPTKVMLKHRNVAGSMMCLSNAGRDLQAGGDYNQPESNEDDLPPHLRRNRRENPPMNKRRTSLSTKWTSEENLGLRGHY

[6] = target: T1, Peroxisome proliferator-activated receptor gamma/Nuclear receptor corepressor 2; format: functional
[7] = target: Genome polyprotein (dengue virus type 2, UniProt P29990); experiment: flavivirus cap methylation enzyme inhibition – biochemical, confirmation dose response, primary screen (AID 588689); format: functional
[8] = target: T5, Epstein-Barr nuclear antigen 1 (Epstein-Barr virus (strain B95-8) (HHV-4) (Human herpesvirus 4), UniProt P03211); experiment: inhibition of EBV nuclear antigen 1 DNA binding – biochemical, fluorescence polarization, 1536-well, dose response (AID 2381); parameters: species or system human gammaherpesvirus 4;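 note: fluorescence polarization of a Cy5 DNA probe bound by EBNA-1 protein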
T5 sequence (P03211 whole entry): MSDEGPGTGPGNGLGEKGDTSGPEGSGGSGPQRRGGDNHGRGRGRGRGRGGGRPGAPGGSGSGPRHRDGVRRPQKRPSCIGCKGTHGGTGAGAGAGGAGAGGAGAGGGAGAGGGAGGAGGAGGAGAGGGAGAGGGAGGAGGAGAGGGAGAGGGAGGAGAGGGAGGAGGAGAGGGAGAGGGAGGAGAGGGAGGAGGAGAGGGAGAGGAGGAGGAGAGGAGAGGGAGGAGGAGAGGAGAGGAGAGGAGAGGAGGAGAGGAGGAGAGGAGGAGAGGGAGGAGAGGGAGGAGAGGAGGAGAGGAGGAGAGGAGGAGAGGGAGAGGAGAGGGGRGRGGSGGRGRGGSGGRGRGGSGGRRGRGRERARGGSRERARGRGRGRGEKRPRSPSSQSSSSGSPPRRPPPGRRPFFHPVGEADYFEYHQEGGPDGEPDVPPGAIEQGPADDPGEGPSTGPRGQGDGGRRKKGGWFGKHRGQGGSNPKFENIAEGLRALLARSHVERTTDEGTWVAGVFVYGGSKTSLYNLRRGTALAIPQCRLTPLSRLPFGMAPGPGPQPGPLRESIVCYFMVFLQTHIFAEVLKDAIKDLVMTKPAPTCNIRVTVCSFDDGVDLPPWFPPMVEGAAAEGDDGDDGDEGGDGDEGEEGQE

[9] = target: T6, Lytic switch protein BZLF1 (Epstein-Barr virus (strain B95-8) (HHV-4) (Human herpesvirus 4), UniProt P03206); experiment: inhibition of BZLF1 ZTA DNA binding – biochemical, fluorescence polarization, Epstein-Barr virus, 1536-well, counter-screen for EBNA-1 inhibitor project, dose response (AID 2377); parameters: species or system human gammaherpesvirus 4;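 note: fluorescence polarization of Cy5-labelled ZRE DNA probe bound by purified Zta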
T6 sequence (P03206 whole entry): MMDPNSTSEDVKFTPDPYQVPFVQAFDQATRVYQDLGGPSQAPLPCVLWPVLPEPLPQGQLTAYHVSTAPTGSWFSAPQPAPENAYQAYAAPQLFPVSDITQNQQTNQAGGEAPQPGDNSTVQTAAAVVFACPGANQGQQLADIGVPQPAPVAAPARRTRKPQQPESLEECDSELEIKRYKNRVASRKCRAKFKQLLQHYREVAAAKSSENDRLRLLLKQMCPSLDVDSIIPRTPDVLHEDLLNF

[10] = Trypanosoma cruzi growth suppression in host cells – NIH3T3 host cells, beta-gal luminescence, confirmation (AID 2044); format: functional, cell-based;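 note: intracellular parasites grown in NIH/3T3 mouse fibroblasts as host cells; luminescent beta-galactosidase reporter signal from transgenic T. cruzi replicating inside host cells; inhibitors lower the luminescence signal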
[11] = NIH3T3 cell viability loss – ATP luminescence, mouse fibroblasts, counter-screen, dose response (AID 2010); format: functional, cell-based;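 note: cells exposed to compound for about 90 hours before reading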
[12] = cells
[13] = target: Estrogen receptor beta (Homo sapiens, UniProt Q92731);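 note: recombinant ER-beta bound to coactivator SRC1 peptide in presence of estradiol agonist; inhibitors block coactivator peptide binding and lower the FRET signal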
[14] = target: Induced myeloid leukemia cell differentiation protein Mcl-1 (Homo sapiens, UniProt Q07820); format: functional
[15] = cells; format: functional, cell-based
[16] = target: T7, Trace amine-associated receptor 1 (Homo sapiens, UniProt Q96RJ0); experiment: Fluorescence-based cell-based high throughput dose response assay to identify agonists of the human trace amine associated receptor 1 (TAAR1).; format: functional
T7 sequence (Q96RJ0 whole entry): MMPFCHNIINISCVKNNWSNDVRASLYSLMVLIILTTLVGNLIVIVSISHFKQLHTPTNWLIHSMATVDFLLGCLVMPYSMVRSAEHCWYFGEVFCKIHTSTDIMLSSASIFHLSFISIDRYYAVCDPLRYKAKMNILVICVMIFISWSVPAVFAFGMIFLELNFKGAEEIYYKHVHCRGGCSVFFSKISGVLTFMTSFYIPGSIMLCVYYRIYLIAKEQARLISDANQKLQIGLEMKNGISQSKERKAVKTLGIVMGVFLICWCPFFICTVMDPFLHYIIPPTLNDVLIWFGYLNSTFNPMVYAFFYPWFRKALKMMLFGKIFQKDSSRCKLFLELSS

[17] = target: T7, Trace amine-associated receptor 1; experiment: Counterscreen for agonists of the human trace amine associated receptor 1 (hTAAR1): Fluorescence-based cell-based high throughput dose response assay to identify hTAAR1 agonist that also desensitize TAAR1 receptor response.; format: functional
[18] = cells; format: functional, cell-based; remark: listed apart in the source
[19] = target: Luciferin 4-monooxygenase (Photinus pyralis, UniProt P08659); experiment: inhibition of purified Photinus pyralis luciferase – biochemical, luminescence, dose response (AID 1891)
[20] = Luminescence Cell-Based Dose Confirmation HTS to Identify Inhibitors of Platelet Dense Granule Release. [Related pubchem assays: 1663 (Primary HTS), 1678 (Summary of Project)]; format: functional
[21] = A cytotoxicity screen of small molecule inhibitors of the PhoP region in Salmonella typhi identified in the primary screen. [Related pubchem assays: 1850, 1864, 1985 ]; format: functional
[22] = target: Cytochrome P450 2C9 (Homo sapiens, UniProt P11712)
Sequence of Cytochrome P450 2C9 (P11712 whole entry): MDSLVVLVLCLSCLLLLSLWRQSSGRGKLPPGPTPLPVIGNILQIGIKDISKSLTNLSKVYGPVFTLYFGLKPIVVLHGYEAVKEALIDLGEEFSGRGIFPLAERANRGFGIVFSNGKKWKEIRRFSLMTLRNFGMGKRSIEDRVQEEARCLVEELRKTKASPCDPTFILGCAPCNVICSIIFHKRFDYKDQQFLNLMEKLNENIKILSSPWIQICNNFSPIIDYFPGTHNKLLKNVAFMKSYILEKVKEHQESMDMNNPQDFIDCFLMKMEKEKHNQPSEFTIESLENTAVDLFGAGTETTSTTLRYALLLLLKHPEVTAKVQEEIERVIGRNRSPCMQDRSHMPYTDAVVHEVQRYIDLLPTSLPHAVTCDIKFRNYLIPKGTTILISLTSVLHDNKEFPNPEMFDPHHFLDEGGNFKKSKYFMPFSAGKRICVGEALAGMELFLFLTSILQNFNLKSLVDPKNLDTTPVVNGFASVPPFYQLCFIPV

T2 sequence (Q9Y5X4 whole entry): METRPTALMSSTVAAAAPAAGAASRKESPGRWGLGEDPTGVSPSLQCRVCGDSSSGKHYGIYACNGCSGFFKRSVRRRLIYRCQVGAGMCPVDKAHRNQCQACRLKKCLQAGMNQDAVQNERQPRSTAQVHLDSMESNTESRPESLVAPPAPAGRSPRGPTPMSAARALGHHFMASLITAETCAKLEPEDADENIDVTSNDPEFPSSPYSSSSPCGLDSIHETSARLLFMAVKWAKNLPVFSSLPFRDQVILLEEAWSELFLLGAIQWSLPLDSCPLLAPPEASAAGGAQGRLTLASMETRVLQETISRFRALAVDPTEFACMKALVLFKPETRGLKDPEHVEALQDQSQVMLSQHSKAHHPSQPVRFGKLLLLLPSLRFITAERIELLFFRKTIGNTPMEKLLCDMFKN
T1 sequence (P37231 whole entry): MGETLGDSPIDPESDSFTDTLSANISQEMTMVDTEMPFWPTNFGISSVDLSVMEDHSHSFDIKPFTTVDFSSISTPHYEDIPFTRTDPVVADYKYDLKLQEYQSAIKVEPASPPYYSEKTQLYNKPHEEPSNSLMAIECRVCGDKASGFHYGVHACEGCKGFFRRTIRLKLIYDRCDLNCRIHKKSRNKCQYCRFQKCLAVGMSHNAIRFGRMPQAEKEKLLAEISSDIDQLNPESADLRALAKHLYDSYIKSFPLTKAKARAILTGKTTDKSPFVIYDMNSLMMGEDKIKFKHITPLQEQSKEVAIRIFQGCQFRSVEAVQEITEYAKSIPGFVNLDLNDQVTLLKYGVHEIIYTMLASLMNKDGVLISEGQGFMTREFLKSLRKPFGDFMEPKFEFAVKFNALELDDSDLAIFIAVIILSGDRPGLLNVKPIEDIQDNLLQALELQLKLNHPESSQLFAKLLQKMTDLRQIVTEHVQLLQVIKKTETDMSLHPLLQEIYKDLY
T1 sequence (Q9Y618 whole entry): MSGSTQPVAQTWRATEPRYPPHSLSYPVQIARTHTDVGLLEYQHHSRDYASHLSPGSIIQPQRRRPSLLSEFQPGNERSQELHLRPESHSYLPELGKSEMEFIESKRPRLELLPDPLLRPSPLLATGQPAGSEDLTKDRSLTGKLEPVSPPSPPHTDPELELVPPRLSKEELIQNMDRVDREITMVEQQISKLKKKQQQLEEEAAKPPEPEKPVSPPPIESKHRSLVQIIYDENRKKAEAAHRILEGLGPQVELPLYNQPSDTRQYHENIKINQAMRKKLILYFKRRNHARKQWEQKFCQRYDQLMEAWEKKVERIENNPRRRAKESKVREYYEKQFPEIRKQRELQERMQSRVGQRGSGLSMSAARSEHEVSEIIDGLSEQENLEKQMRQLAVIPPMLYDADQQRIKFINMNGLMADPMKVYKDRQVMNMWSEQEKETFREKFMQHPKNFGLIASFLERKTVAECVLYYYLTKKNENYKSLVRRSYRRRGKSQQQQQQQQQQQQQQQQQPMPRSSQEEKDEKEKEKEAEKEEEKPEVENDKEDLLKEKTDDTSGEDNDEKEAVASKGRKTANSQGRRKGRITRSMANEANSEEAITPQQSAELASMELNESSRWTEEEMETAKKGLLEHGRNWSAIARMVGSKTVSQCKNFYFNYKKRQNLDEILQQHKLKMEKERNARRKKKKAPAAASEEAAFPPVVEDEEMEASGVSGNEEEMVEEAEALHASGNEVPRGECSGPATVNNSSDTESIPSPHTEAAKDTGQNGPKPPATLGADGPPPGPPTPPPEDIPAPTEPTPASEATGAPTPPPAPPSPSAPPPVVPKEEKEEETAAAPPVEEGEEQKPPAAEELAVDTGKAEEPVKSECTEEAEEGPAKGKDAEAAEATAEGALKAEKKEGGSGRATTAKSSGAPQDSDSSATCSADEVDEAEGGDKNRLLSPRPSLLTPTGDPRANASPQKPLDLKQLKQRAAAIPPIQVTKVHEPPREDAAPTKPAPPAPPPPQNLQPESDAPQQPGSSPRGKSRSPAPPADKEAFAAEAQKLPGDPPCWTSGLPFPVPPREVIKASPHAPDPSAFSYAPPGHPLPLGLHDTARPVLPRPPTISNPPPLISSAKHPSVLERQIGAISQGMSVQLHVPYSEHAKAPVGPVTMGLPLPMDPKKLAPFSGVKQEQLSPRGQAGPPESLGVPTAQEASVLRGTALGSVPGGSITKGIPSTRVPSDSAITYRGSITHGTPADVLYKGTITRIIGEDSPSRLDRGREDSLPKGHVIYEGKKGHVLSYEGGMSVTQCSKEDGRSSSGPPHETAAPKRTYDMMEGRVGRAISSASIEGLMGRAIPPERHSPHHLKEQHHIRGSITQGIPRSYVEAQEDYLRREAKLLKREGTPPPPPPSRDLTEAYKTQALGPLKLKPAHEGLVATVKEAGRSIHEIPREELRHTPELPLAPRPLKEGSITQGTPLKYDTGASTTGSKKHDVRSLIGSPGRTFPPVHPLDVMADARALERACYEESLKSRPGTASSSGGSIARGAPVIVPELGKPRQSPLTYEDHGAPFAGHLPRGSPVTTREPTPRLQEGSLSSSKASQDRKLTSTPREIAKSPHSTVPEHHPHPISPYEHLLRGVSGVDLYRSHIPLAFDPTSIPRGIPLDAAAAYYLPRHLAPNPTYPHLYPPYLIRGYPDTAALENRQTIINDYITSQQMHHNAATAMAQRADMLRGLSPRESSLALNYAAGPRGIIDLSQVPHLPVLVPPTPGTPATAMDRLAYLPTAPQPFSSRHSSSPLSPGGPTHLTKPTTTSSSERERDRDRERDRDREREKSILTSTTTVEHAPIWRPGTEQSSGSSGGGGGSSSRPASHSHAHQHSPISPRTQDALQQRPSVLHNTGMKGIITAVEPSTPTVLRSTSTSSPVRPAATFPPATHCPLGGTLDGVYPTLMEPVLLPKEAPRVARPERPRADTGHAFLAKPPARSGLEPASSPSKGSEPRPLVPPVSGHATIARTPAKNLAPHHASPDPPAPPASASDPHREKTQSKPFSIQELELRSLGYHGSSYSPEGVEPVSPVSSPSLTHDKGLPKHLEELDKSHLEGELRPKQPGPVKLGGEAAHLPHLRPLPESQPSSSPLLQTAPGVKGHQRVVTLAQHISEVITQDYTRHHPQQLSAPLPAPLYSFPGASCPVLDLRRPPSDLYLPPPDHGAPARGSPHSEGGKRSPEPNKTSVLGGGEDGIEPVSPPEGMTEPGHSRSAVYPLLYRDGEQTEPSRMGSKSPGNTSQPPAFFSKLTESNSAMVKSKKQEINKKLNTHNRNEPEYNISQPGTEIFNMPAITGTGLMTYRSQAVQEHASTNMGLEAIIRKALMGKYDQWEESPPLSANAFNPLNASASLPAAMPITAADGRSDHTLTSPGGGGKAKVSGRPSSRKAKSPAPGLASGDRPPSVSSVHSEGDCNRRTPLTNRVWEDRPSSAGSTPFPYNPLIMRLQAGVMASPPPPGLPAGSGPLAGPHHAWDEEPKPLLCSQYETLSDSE
Sequence of Induced myeloid leukemia cell differentiation protein Mcl-1 (Q07820 whole entry): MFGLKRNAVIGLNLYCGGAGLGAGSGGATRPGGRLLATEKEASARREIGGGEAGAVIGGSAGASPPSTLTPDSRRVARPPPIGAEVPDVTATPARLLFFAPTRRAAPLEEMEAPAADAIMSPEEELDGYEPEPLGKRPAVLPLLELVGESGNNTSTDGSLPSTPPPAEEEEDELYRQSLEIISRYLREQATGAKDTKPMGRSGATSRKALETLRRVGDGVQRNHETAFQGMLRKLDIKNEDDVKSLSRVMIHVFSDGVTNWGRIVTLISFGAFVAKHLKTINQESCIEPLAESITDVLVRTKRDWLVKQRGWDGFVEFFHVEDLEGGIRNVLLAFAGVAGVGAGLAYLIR
Sequence of Luciferin 4-monooxygenase (P08659 whole entry): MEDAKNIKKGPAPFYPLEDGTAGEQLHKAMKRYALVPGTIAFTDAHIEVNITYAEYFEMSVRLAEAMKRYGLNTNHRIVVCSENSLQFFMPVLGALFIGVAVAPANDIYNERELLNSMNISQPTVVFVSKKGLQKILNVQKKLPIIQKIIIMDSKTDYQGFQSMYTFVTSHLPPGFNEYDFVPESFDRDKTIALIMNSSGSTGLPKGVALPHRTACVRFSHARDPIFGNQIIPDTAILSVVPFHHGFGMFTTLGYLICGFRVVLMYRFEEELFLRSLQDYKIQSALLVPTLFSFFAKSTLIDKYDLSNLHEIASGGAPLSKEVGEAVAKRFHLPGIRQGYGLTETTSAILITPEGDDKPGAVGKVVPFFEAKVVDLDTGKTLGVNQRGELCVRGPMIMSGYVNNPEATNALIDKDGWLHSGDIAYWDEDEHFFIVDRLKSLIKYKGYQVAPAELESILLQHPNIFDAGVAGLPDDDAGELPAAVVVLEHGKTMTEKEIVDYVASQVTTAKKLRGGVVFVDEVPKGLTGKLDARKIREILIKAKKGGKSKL

With `COc1ccc(C(=O)Nc2ccc(NC(=O)c3cccs3)cn2)cc1` the IC50 [1] was 7.65 µM (active) and the IC50 [2] was 7.18 µM (active).
With `COC(=O)c1c(Cl)c2n3ccccc3c(C)c(-c3ccccc3)c-2c1C(=O)OC` the IC50 [3] was 0.303 µM (active), the EC50 [4] was 47.5 µM (active) and the EC50 [5] was 25.8 µM (active). For the same compound, the IC50 [6] was 0.0555 µM (active) and the IC50 [7] was 74.5 µM (active).
In the case of `COc1ccc(N2CC(=O)C(c3nc4ccccc4s3)=C2N)cc1`, the IC50 [8] is reported as 11.2 µM (not active) and the IC50 [9] is reported as > 111 µM (not active).
For `CCCCN(CC)CCCNC(=O)C1CCN(c2ncnc3c2sc2cccc(F)c23)CC1`, the EC50 [10] was < 0.1 µM (active), the EC50 [11] was > 30 µM (not active) and the EC50 [12] was 0.294 µM (active).
With `Cc1ccc(CCNS(=O)(=O)c2c[nH]cn2)cc1` the IC50 [13] was > 50 µM (not active).
For `CCN(c1ccc(NC(=O)COC(=O)c2ccc(C)c(S(=O)(=O)N3CCOCC3)c2)cc1)C(C)C`, the IC50 [14] was 1.67 µM (not active).
With `O=C(CSc1ccc(-c2cccs2)nn1)N1CCCCC1` the IC50 [1] was 8.03 µM (active) and the IC50 [2] was 2.64 µM (active).
For `CC1NC(=O)NC1CCCCCC(=O)NCCc1ccccc1` (configuration not stated), the IC50 [3] was 1.06 µM (active), the IC50 [6] was 3.01 µM (active) and the IC50 [15] was > 29.9 µM (inactive). The EC50 [16] was 1.93 µM (active), the IC50 [17] was 6.36 µM (active) and the EC50 [18] was > 29.9 µM (inactive).
With `C(=C\c1ccco1)/c1ccc2ccccc2n1` the EC50 [19] was 4.25 µM (active), the EC50 [20] was 15.2 µM (active) and the IC50 [14] was 9.47 µM (active).
With `COc1cccc(/C=N/NC(=O)CO/N=C(\C)c2cccs2)c1OC` the EC50 [21] was > 50 µM (active) and the AC50 [22] was 39.8 µM (inconclusive).
